Columns and labels:
human EDG-4 = target: T1, human EDG-4 (Homo sapiens, UniProt O95136, F273L/I205V); experiment: Relative potency and efficacy of agonists, luciferase (SRE) reporter in 293-EBNA cells expressing recombinant human EDG-4; type: cell-based; conditions: for Rank (EMax): rank of efficacy
T1 construct: a 1059 bp open reading frame (excluding the stop codon) corresponding to the complete human edg-4 coding region; expressed in transfected cells; host or cells: 293-EBNA
Method: (§1) Transfection of EDG-4, expression, pretreatment and treatment of 293-EBNA cells expressing recombinant human EDG-4 was carried out essentially as described in “Example 11. […] Results were tabulated in Microsoft Excel, and analyzed with GraphPad Prism sotfware. […] The luciferase response was expressed as fold response, after subtracting any endogenous response in pcDNA3-transfected cells at a given concentration of compound.

293-EBNA cells = type: cell-based
Method: as §1

HeLa cells [1] = experiment: IL-8 response (IL-8 ELISA) in HeLa cells; type: cell-based, human
Method: • Cells: HeLa (adenocarcinoma, human) • Media: DMEM/F12+10% FBS Adherent • 1) Cells were seeded at 0.2×10^6 cells/well in 6-well plates. • 2) Confluency of cells after 24–32 hrs was between 60–70%. B. Overnight Serum-Starvation • 1) Media was aspirated (no PBS wash). • 2) 1.5 ml 0.5% FBS media was added to each well. C. Treatments and Collection • 1) Made up all required solutions in 0.5% FBS media (control). Handling of […] for use in NF-κB experiments requires that sonication, commonly used to resuspend LPA, not be done; NF-κB may be activated by lipid peroxides created through vigorous frothing. Solutions:
D. Detection of Interleukin-8 (IL-8) using an IL-8 ELISA (Enzyme-Linked ImmunoSorbent Assay). • 1) The Quantikine Human IL-8 Immuno Assay Kit was obtained from R&D Systems (Cat. D8050). • 2) The kit and all samples were allowed to equlibrate to room temperature prior to use. • 3) All reagents were provided in the kit and prepared according to the instructions provided. • 4) The assay procedure was followed as recommended in the kit for cell culture supernatant samples. • 5) ELISA was performed on 50 μl samples of culture supernatant and duplicate samples were measured for each well. Each treatment was performed on triplicate wells. • 6) Plates were read on UV max kinetic microplate reader (Molecular Devices), set to 450 nm and correction set to 575 nm, using Wsoftmax sotware version 2.34.
• 1) Cells were seeded at 2.5×10^4 cells/well in 24-well plates. • 2) Confluency of cells after 24–32 hrs was between 60–70%. B. Overnight Serum-Starvation and PTX Pre-Treatment • 1) Media was aspirated (no PBS wash). • 2) 0.5 ml 0.5% FBS media was added to all wells not requiring PTX pre-treatment. • 3) For well requiring PTX; 0.5 ml 0.5% FBS media containing 50 ng/ml PTX (1 volume PTX (RBI Cat. P140): 1 volume DTT, incubate 37° C. for 30 minutes then dilute to 50 ng/ml) was added. C. Treatments and Collection • 1) Made up all required solutions in 0.5% FBS media (control). […] D. Refer to Procedure #1 For HeLa Cells (D).

HeLa cells [2] = experiment: Cytotoxicity (viable cell count at 24 hr) in HeLa cells; conditions: NDGA 40 μM
Method: For this purpose, an experiment was conducted to measure cytotoxicity in parallel with IL-8 response.

[3] = tested on: Human Umbilical Vein Endothelial Cells (HUVEC); experiment: IL-8 response in primary cultured HUVEC; type: cell-based; conditions: 5 μM, 6 hr
Method: Cells: HUVEC (Clonetics, Cat. CC-2519) were passaged according to supplier's instructions and used at passage 3. Cells were plated at 20,000 cells/well into 24-well plates. […] LPA induced a 3-fold IL-8 increase at this concentration. […] As shown below in FIG. 23, three cloned edge receptors respond to LPA as an agonist, and all three appear to transduce NF-κB activation in an agonist-dependent manner.

rat EDG-4 = rat EDG-4 (Rattus norvegicus, UniProt P47752); experiment: NF-κB-tk-p4Luc luciferase reporter in 293-EBNA cells, rat EDG-4; type: cell-based; set-up: transient transfection with a eukaryotic expression vector expressing full-length rat edg-4 cDNA; expressed in transfected cells; host or cells: 293-EBNA; conditions: Assay 1; 24 hrs
Description: First, the NF-κB response element was reconstructed in a new reporter construct (p4Luc) suitable for stable maintenance as an episome in primate cells. […] The p4-Luc reporter used the backbone of pREP4 (Invitrogen; Cat. V004-50), which contains the EBV orgin of replicaiton (EBVoni), as well as the EBNA-1 viral antigen required to maintain EBVoti containing plasmids as stable episoms in primate cells, and a prokayotic selection marker. A dominant eukaryotic selection marker for zeocin resistance was substituted for expression in pREP4. The promoter of pREP4 was then excised and replaced with a multi-cloning site for introduction of promoter/enhancer inserts. The NF-κB inser of the previous CAT reporter was subcloned into this site and all cloning junctions were sequenced to verify the structure of the plasmid, called NF-κB-tk-p4Luc.
• 1) 150 mm plates of 293-EBNA obtained from Invitrogen (Cat. R620-07) with a confluency of 18 80% were used for transfection. • 2) 6.6 μg NF-κB-tk-p4Luc reporter DNA and 6.6 μg of pC3-redg4 (expressing rat EDG-4), or pcDNA3 DNA was diluted in 500 μl OPTI-MEM (Gibco; Cat. 31985-062) • 3) 96.8 μl Lipofectamine (Gibco; Cat. 18324-020) was diluted in 500 μl of OPTI-MEM. • 4) The 2 solutions were mixed gently and the tube was incubated for 30 min at room temperature. • 5) The 293-EBNA plates were washed once with PBS and 13 ml OPTI-MEM was added to each plate, • 6) 6 ml OPTI-UMM was added to each transfection tube and this was added to a plate of 293EBNA cells. The plates were left for 4 hrs at 37° C. in a 5% CO2 incubator. • 7) After 4 his, the media was removed and replaced with frest 10% FBS media. Day 2: • 1) Transfected cells were washed, typsinized with 1× tryspin, resuspended in 10 ml media and counted. • 2) 0.02×10 ^6 cells were plated per well of a 96-well Blackview plate coated with polyD-lysine. No cells were plated in the outside wells of the 96-well plate. Two 96-well plates were seeded for each transfection. Day 3: • 1) Cells were washed with PBS and 140 μl serum-free media (SFM) added to each well. Plates were incubated in 37° C. incubator for 6 hrs. • 2) After 6 hrs, media was removed and cells treated with compounds diluted in 0.5% FBS media (140 μl added to each well).
Day 4 Luciferase Assay • 1) Luclite kit (Packard; Cat. 6016911) was used for luciferase assay. All reagents were brought to room temperature before use. • 2) Supernatant was transferred to a new 96-well plate and stored at −20 C. for rupture IL-8 measurement. • 3) 50 μl 0.5 M HEPES pH 7.8 buffer (1 mM MgCl21 mM CaCl2) was addeded to all wells of 96-well plate. Black adhesive backing (polyfitronics) was aligned to the bottom of the viewplate. • 4) Luclite substrate was made up by adding 10 ml substate diluent to 1 vial lyophilized substrate. Reconstituted substrate was kept under a dark container. 50 μl substrate was added to each well. • 5) A clear adhesive plate sealer was adjusted on to the viewplate and sealer rubbed over the plate with a Kimwipe. The plate was shaken on a plate shaker at 500 rpm for 5 seconds right side up and then upside down. A stop plate was placed on top of the blackview plate to keep it in the dark. • 6) Plates were incubated at room temperature for 30 min. • 7) After incubation, plates were counted in a 12 detector Packard Top Count on a program without dark delay.

HL-60 cells = experiment: IL-8 response in HL-60 cells; type: cell-based, human; conditions: 1, 6 or 24 hours, S1P or LPA up to 3 μM, TNF-α 10 ng/ml
[4] = S1P 1 μM, NDGA 40 or 10 μM, NAC 30 mM, 30 minute pre-treatment

T1 sequence (O95136 whole entry I205V/F273L): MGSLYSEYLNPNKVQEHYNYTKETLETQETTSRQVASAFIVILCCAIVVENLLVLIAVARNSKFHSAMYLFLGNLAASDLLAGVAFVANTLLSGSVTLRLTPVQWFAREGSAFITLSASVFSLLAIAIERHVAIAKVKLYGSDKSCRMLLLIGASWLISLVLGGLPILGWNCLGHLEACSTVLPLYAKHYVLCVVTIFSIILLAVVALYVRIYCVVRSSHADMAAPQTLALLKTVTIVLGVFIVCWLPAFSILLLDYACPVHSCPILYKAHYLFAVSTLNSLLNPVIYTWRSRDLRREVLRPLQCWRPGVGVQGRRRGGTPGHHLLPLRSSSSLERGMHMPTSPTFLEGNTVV
Sequence of rat EDG-4 (P47752 whole entry): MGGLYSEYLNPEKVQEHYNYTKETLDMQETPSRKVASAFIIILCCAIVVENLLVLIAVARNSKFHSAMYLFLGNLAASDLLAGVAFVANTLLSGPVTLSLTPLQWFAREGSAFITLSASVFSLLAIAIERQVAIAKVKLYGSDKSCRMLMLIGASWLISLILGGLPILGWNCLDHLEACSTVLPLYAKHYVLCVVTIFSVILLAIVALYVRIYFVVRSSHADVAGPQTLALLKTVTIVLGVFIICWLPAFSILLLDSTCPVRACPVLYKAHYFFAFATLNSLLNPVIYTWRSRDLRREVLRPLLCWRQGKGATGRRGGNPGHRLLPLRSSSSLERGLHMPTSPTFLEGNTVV

CCCCCCCCCCCCCCC[C@@H](O)[C@@H](N)COP(=O)(O)O [Dihydro-S1P, dihydrosphingosine 1-phosphate]
agonist character at EDG-4 (human EDG-4): partial agonist | Rank (EMax) (human EDG-4): 3

CCCCCCCCCCCCC/C=C/[C@@H](O)C(N)CO[C@@H]1O[C@H](CO)[C@@H](O)[C@H](O)[C@@H]1O (stereo partly shown) [Glucospychosin, glucopsychosine]
agonist character at EDG-4 (human EDG-4): poor potency and efficacy | Rank (EMax) (human EDG-4): 4 | concentration at which cytotoxicity was seen (293-EBNA cells): ^aCytotoxicity was seen at 10 μM or higher concentrations, preventing quantitative determination of EC50 or EMax

CC(=O)N[C@@H](CS)C(=O)O [NAC]
inhibition of IL-8 response to S1P (HeLa cells [1]; [4]): significantly inhibited

CC(Cc1ccc(O)c(O)c1)C(C)Cc1ccc(O)c(O)c1 (stereo not shown) [NDGA]
inhibition of IL-8 response to S1P (HeLa cells [1]; S1P 1 μM, NDGA 40 μM): completely inhibited | inhibition of IL-8 response to S1P (HeLa cells [1]; [4]): significantly inhibited | toxicity (HeLa cells [2]): some toxicity

CCCCCCCCCCCCC/C=C/[C@@H](O)[C@@H](N)CO[C@@H]1O[C@H](CO)[C@H](O)[C@H](O)[C@H]1O [Psychosine, psychosine]
IL-8 levels, increase over untreated controls [3]: Marginal increases | agonist character at EDG-4 (human EDG-4): poor potency and efficacy | Rank (EMax) (human EDG-4): 5 | concentration at which cytotoxicity was seen (293-EBNA cells): ^aCytotoxicity was seen at 10 μM or higher concentrations, preventing quantitative determination of EC50 or EMax

Cc1ccc(C(=O)Nc2ccc(S(=O)(=O)O)c3cc(S(=O)(=O)O)cc(S(=O)(=O)O)c23)cc1NC(=O)c1cccc(NC(=O)Nc2cccc(C(=O)Nc3cc(C(=O)Nc4ccc(S(=O)(=O)O)c5cc(S(=O)(=O)O)cc(S(=O)(=O)O)c45)ccc3C)c2)c1 [Suramin]
inhibition of IL-8 response to edelfosine (HeLa cells [1]; ET-18-OCH3 3 μM, PTX 50 ng/ml or suramin 1 mg/ml): potently inhibited | effect on IL-8 response to S1P (HeLa cells [1]; S1P 1 μM, suramin 1 mg/ml, 30 minute pre-treatment): extremely effective in blunting the IL-8 response to S1P

CCCCCCCCCCCCCC(=O)O[C@@H]1[C@@H](C)[C@@]2(O)[C@@H](C=C(CO)C[C@]3(O)C(=O)C(C)=C[C@@H]23)[C@H]2C(C)(C)[C@]12OC(C)=O [TPA]
induction of NF-κB reporter (rat EDG-4): strongly induced

CCCCC/C=C\C/C=C\C/C=C\C/C=C\CCCC(=O)NCCO [anandamide]
IL-8 levels, increase over untreated controls [3]: no responses

CCCCCCCCCCCCC/C=C/[C@@H](O)[C@@H](N)CO [sphingosine]
IL-8 induction (HeLa cells [1]; 6 hours, concentration series): lack of response

TNF-α
IL-8 release (HL-60 cells): capable of responding at 6 or 24 hr
